Results as given in patent US7563781B2, “Triazolopyrimidine derivatives” (Janssen Pharmaceutica NV, priority 2006, dated 2009).

How the values were obtained:
[1] = target: T1, Focal Adhesion Kinase (full-length Flag-tagged human FAK) (Homo sapiens, UniProt Q05397); assay: in vitro FAK ELISA kinase assay; format: biochemical; settings: compound 10 uM; ATP 2 uM; read-out: FAK % Inhib ave: 10 uM
T1 construct: a purified recombinant full-length Flag-tagged human FAK protein; Flag; made in house; host or cells: baculovirus infected insect cells
T1 sequence (Q05397 whole entry): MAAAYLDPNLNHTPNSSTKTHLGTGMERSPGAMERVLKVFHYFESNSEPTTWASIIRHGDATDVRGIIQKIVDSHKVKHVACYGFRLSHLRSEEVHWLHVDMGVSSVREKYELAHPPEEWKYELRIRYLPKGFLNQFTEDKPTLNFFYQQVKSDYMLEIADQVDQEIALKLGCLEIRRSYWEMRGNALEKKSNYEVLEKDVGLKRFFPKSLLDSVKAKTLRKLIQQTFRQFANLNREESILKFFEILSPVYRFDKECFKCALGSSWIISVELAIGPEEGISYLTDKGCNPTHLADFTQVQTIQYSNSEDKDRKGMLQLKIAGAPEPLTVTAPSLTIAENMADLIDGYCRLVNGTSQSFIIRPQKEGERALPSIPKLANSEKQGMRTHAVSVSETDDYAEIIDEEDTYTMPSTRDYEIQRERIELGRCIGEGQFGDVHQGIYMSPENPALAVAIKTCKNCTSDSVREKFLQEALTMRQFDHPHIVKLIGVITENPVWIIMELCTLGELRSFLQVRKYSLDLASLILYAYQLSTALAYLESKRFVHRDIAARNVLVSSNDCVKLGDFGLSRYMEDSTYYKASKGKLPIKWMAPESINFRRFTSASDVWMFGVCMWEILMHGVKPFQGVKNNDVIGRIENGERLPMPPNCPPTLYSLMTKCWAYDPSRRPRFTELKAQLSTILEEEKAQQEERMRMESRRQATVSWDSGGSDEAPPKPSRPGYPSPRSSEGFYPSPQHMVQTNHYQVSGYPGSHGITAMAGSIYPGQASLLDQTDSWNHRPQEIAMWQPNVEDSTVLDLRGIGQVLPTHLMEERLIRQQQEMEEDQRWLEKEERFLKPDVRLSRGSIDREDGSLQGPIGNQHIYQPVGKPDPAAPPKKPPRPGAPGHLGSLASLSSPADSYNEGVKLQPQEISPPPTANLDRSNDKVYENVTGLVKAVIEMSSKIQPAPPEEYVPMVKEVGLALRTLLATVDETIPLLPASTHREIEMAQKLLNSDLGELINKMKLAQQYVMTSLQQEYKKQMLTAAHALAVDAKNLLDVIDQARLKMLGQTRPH
Procedure, shortened: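 Plate-coated GST fusion of the 73-residue region around Tyr397 phosphorylated by full-length Flag-tagged human FAK from baculovirus-infected insect cells, with 2 μM ATP in Mg/Mn HEPES pH 7.5, 1 h at 30 °C. Phosphotyrosine detected by HRP-anti-pTyr ELISA with TMB read-out. Compounds screened at 10 μM or titrated from 50 μM in half-log steps for IC50, BSA-substrate background subtracted.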

[2] = target: T2, CAK complex (human Cdk7, human Cyclin H, MAT-1) (Homo sapiens, UniProt P50613); assay: in vitro time-resolved-fluorescence assay for the CAK kinase activity; format: biochemical; settings: compound 20 uM; read-out: CAK % inhib; 20 uM
T2 construct: made in house; host or cells: SF-900 insect cells co-infected with Flag-Cdk7 and Bab-Cyclin H baculoviruses
T2 sequence (P50613 with tags, fused parts or gaps): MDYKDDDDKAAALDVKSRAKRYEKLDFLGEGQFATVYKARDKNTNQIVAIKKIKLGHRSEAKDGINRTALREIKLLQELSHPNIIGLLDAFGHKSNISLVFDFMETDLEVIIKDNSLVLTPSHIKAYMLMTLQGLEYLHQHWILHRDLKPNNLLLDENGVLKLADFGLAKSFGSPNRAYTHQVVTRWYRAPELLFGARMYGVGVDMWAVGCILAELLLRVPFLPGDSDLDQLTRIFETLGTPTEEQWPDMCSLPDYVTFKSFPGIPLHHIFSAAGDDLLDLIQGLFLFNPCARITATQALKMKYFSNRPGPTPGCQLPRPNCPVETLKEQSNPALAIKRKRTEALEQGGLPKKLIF
T2 sequence (as listed by the source partner): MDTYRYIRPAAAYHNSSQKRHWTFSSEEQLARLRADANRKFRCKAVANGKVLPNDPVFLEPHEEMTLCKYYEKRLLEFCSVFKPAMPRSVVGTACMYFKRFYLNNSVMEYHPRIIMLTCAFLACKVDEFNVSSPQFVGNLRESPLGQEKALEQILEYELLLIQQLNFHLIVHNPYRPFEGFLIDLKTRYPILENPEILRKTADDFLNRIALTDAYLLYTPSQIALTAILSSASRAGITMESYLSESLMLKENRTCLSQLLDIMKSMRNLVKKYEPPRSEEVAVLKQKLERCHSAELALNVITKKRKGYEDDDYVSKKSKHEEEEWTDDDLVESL
Procedure, shortened: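 Kinase activity of the human CAK complex (Flag-tagged Cdk7, Cyclin H, MAT-1), purified from co-infected SF-900 insect cells by Flag-M2 immunoaffinity, was measured by time-resolved fluorescence. In black glutathione-coated 96-well plates, 500 ng GST-CTD substrate with 22 uM ATP was mixed with compound in 30% DMSO/25 mM Hepes and 250 ng CAK. Plates were incubated 20 minutes at 30° C, then stopped with EDTA, bound overnight and washed. A Europium-labeled antibody detected serine-phosphorylated CTD.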

| SMILES | inhibition at 10 µM [1] [%] | inhibition at 20 µM [2] [%] |
| --- | --- | --- |
| CCN(CC)CCNC(=O)c1ccc(Nc2ncc3nnn(Cc4ccc(N(C)C)cc4)c3n2)cc1 [Compound 69, N-(2-Diethylamino-ethyl)-4-[3-(4-dimethylamino-benzyl)-3H-[1,2,3]triazolo[4,5-d]pyrimidin-5-ylamino]-benzamide] | 27 | -11.4 |
| CCN(CC)CCNC(=O)c1ccc(Nc2ncc3nnn([C@@H](CO)[C@@H](O)c4ccccc4)c3n2)cc1 [Compound 70, N-(2-Diethylamino-ethyl)-4-[3-(2-hydroxy-1-hydroxymethyl-2-phenyl-ethyl)-3H-[1,2,3]triazolo[4,5-d]pyrimidin-5-ylamino]-benzamide] | 15 | 21 |
| CCN(CC)CCNC(=O)c1ccc(Nc2ncc3nnn(Cc4nc5ccccc5[nH]4)c3n2)cc1 [Compound 71, 4-[3-(1H-Benzoimidazol-2-ylmethyl)-3H-[1,2,3]triazolo[4,5-d]pyrimidin-5-ylamino]-N-(2-diethylamino-ethyl)-benzamide] | 27.5 | 52.8 |
| CCN(CC)CCNC(=O)c1ccc(Nc2ncc3nnn(-c4ccc(C5CCCCC5)cc4)c3n2)cc1 [Compound 83, 4-[3-(4-Cyclohexyl-phenyl)-3H-[1,2,3]triazolo[4,5-d]pyrimidin-5-ylamino]-N-(2-diethylamino-ethyl)-benzamide] | 28.7 | 5.45 |
| CCN(CC)CCNC(=O)c1ccc(Nc2ncc3nnn(-c4cccc(-c5cnco5)c4)c3n2)cc1 [Compound 84, N-(2-Diethylamino-ethyl)-4-[3-(3-oxazol-5-yl-phenyl)-3H-[1,2,3]triazolo[4,5-d]pyrimidin-5-ylamino]-benzamide] | 46.6 | -58.9 |
| c1cc(Nc2ncc3nnn(-c4cccc(-c5cnco5)c4)c3n2)cc(-c2cnco2)c1 [Compound 85, (3-Oxazol-5-yl-phenyl)-[3-(3-oxazol-5-yl-phenyl)-3H-[1,2,3]triazolo[4,5-d]pyrimidin-5-yl]-amine] | 47.8 | 9.49 |
| CCCCNS(=O)(=O)c1ccc(OC)c(-n2nnc3cnc(Nc4ccc(C(=O)NCCN(CC)CC)cc4)nc32)c1 [Compound 86, 4-[3-(5-Butylsulfamoyl-2-methoxy-phenyl)-3H-[1,2,3]triazolo[4,5-d]pyrimidin-5-ylamino]-N-(2-diethylamino-ethyl)-benzamide] | 65.1 | 110 |
| CCN(CC)CCCOc1ccc(Nc2ncc3nnn(-c4ccc5c(c4)CCC5)c3n2)cc1 [Compound 87, [4-(3-Diethylamino-propoxy)-phenyl]-(3-indan-5-yl-3H-[1,2,3]triazolo[4,5-d]pyrimidin-5-yl)-amine] | 81.5 | 99.5 |
| CN(CCO)CCCOc1ccc(Nc2ncc3nnn(-c4ccc5c(c4)CCC5)c3n2)cc1 [Compound 88, 2-({3-[4-(3-Indan-5-yl-3H-[1,2,3]triazolo[4,5-d]pyrimidin-5-ylamino)-phenoxy]-propyl}-methyl-amino)-ethanol] | 92.3 | 103 |
| CN(CCCOc1ccc(Nc2ncc3nnn(-c4ccc5c(c4)CCC5)c3n2)cc1)Cc1ccccc1 [Compound 90, {4-[3-(Benzyl-methyl-amino)-propoxy]-phenyl}-(3-indan-5-yl-3H-[1,2,3]triazolo[4,5-d]pyrimidin-5-yl)-amine] | 31.7 | 47.5 |

Next, values leading:

| inhibition at 10 µM [1] [%] | inhibition at 20 µM [2] [%] | SMILES |
| --- | --- | --- |
| 81.5 | 98.4 | O=C(NCCCN1CCCC1)c1cccc(Nc2ncc3nnn(-c4ccc5c(c4)CCC5)c3n2)c1 [Compound 72, 3-(3-Indan-5-yl-3H-[1,2,3]triazolo[4,5-d]pyrimidin-5-ylamino)-N-(3-pyrrolidin-1-yl-propyl)-benzamide] |
| 31.2 | 47.5 | O=C(NCCN1CCOCC1)c1cccc(Nc2ncc3nnn(-c4ccc5c(c4)CCC5)c3n2)c1 [Compound 73, 3-(3-Indan-5-yl-3H-[1,2,3]triazolo[4,5-d]pyrimidin-5-ylamino)-N-(2-morpholin-4-yl-ethyl)-benzamide] |
| 72.8 | 42.7 | O=C(NCCCn1ccnc1)c1ccc(Nc2ncc3nnn(-c4ccc5c(c4)CCC5)c3n2)cc1 [Compound 74, N-(3-Imidazol-1-yl-propyl)-4-(3-indan-5-yl-3H-[1,2,3]triazolo[4,5-d]pyrimidin-5-ylamino)-benzamide] |
| 77.9 | 84 | O=C(NCCCN1CCCC1)c1ccc(Nc2ncc3nnn(-c4ccc5c(c4)CCC5)c3n2)cc1 [Compound 75, 4-(3-Indan-5-yl-3H-[1,2,3]triazolo[4,5-d]pyrimidin-5-ylamino)-N-(3-pyrrolidin-1-yl-propyl)-benzamide] |
| 34.7 | 10.2 | O=C(NCCN1CCOCC1)c1ccc(Nc2ncc3nnn(-c4ccc5c(c4)CCC5)c3n2)cc1 [Compound 76, 4-(3-Indan-5-yl-3H-[1,2,3]triazolo[4,5-d]pyrimidin-5-ylamino)-N-(2-morpholin-4-yl-ethyl)-benzamide] |
| 54.2 | 72.1 | O=C(NCCCN1CCCC1=O)c1ccc(Nc2ncc3nnn(-c4ccc5c(c4)CCC5)c3n2)cc1 [Compound 77, 4-(3-Indan-5-yl-3H-[1,2,3]triazolo[4,5-d]pyrimidin-5-ylamino)-N-[3-(2-oxo-pyrrolidin-1-yl)-propyl]-benzamide] |
| 72 | 89 | CN1CCN(CCCNC(=O)c2ccc(Nc3ncc4nnn(-c5ccc6c(c5)CCC6)c4n3)cc2)CC1 [Compound 78, 4-(3-Indan-5-yl-3H-[1,2,3]triazolo[4,5-d]pyrimidin-5-ylamino)-N-[3-(4-methyl-piperazin-1-yl)-propyl]-benzamide] |
| 80 | 86.6 | O=C(NCCCn1ccnc1)c1cccc(Nc2ncc3nnn(-c4ccc5c(c4)CCC5)c3n2)c1 [Compound 79, N-(3-Imidazol-1-yl-propyl)-3-(3-indan-5-yl-3H-[1,2,3]triazolo[4,5-d]pyrimidin-5-ylamino)-benzamide] |
| 33.9 | 17.9 | O=C(NCCCN1CCCC1=O)c1cccc(Nc2ncc3nnn(-c4ccc5c(c4)CCC5)c3n2)c1 [Compound 80, 3-(3-Indan-5-yl-3H-[1,2,3]triazolo[4,5-d]pyrimidin-5-ylamino)-N-[3-(2-oxo-pyrrolidin-1-yl)-propyl]-benzamide] |
| 58.1 | 99.7 | CN1CCN(CCCNC(=O)c2cccc(Nc3ncc4nnn(-c5ccc6c(c5)CCC6)c4n3)c2)CC1 [Compound 81, 3-(3-Indan-5-yl-3H-[1,2,3]triazolo[4,5-d]pyrimidin-5-ylamino)-N-[3-(4-methyl-piperazin-1-yl)-propyl]-benzamide] |
| 13.5 | 5.06 | OCCCOc1ccc(Nc2ncc3nnn(-c4ccc5c(c4)CCC5)c3n2)cc1 [Compound 82, 3-[4-(3-Indan-5-yl-3H-[1,2,3]triazolo[4,5-d]pyrimidin-5-ylamino)-phenoxy]-propan-1-ol] |
| 73.4 | 97.6 | CN(CCCOc1ccc(Nc2ncc3nnn(-c4ccc5c(c4)CCC5)c3n2)cc1)CC(=O)O [Compound 89, ({3-[4-(3-Indan-5-yl-3H-[1,2,3]triazolo[4,5-d]pyrimidin-5-ylamino)-phenoxy]-propyl]-methyl-amino)-acetic acid] |
